# Assays:
# Type in all cases: cell-based, human
# HDF cells = assay: ViPS pluripotency factor replacement: chemical induction of iPS colonies in 3D microenvironment niche culture; conditions: HDF in 3D ES cell microenvironment niche culture; preliminary
# From the text: To test the possibility of chemical induction of pluripotency in human dermal fibroblasts, well known compounds affecting these pluripotency factors were substituted for expression of the pluripotency factors from viral expression vectors. Candidate compounds included those that affect the Wnt pathway because activation of this pathway had been reported to be involved in OCT 3/4, Sox-2, and Nanog activation. The initial compounds tested included: BIO (6-bromoindirubin-3′-oxime), a specific pharmacological inhibitor of glycogen synthase kinase known to stimulate Wnt signaling and maintain pluripotency in human and mouse embryonic stem cells (Sato et al., Nat. Med. (2004) 10:55-63); prostaglandin E2 (PGE2), reported to be an activator of Wnt pathway via “cross talk” at the beta-catenin signal level; valproic acid, a histone deacetylase (HDAC) inhibitor, and Wnt pathway activator (Bug et al. (2005) Cancer Res 65:2537-41). […] These compounds were chosen for further experimentation since their mechanism of activity was previously determined and they appeared to activate the pluripotency signal transduction pathway (e.g. Wnt pathway).
# Compounds were added to HDF cells grown in 3D ES cell microenvironment niche cultures (prepared as described above in EXAMPLES 1 and 2), to evaluate whether they would rescue iPS phenotype in the absence of individual pluripotency factors introduced retrovirally. ViPS cells, induced with lentiviral transduction of pluripotency factor genes (OCT4, Sox2, Nanog, Klf4) as described by Takahashi et al. ((2007), Cell 131:1-12). Data is presented as the number of colonies with iPS morphology observed per 100,000 host cells.
# Stem cell self renewal optimized 3-D hydrogel ES microenvironment niche conditions (as described in EXAMPLEs 1 and 2) were found necessary for chemical induction of iPS state. Pluripotency was not observed when standard tissue culture plates or those coated with Matrigel or methylcellulose were substituted for the 3D microenvironment conditions.
# [1] = tested on: OCT3/4, SOX2, LIN28, KLF4 promoters; assay: Promoter-GFP reporter screen of compound library in HDF cells in 3D hyaluronan hydrogel niche culture; conditions: for Activation of expression of one or more of the target promoters: GFP fluorescence after 4 days of incubation, normalized to ViPS control; for Optimized Concentration: empirically determined through repeat experiments with a broad range of concentrations
# Method: (§1) Replicate microspots were prepared in Complete Media and transfected with reporter constructs for genes critically expressed in pluripotent cells. The reporter constructs contained promoter regions of one of the genes listed in Table 6 operably linked to a green fluorescent protein (GFP) coding region in pGlow TOPO TA (Invitrogen).
# (§2) Briefly, a transient transfection mixture containing Lipofectamine 2000 (0.4 μl/24 μl total hyaluronan volume, Invitrogen) and promoter-Green Fluorescent Protein (GFP) construct in (500 ng) was added to each microspot.
# (§3) Library screening was performed by including dilution series of each compound in mTeSR-1 medium, to HDF cells embedded in 3D hyaluronan hydrogel microenvironment niche culture optimized as described above in EXAMPLES 1 and 2.
# (§4) After 4 days of incubation with target compounds, relative fluorescence from expression of the GFP constructs was recorded using a fluorescent microplate reader. Values were normalized to reflect percent fluorescence of control (ViPS) cells.
# Compounds that activated expression of one or more of the target promoters were scored as positive.
# SOX2 promoter = assay: Promoter-GFP reporter screen in HDF cells, SOX2 promoter; conditions: FIG. 7
# Method: as §1, §2, §3, §4
# OCT4 promoter = assay: Promoter-GFP reporter screen in HDF cells, OCT4 promoter; conditions: FIG. 7
# Method: as §1, §2, §3, §4
SMILES,"Replacement of virally transduced pluripotency factors (colonies with iPS morphology per 100,000 host cells) (HDF cells)",Activation of expression of one or more of the target promoters [1],Optimized Concentration [1] [µM],Expression of SOX2 promoter (SOX2 promoter),Expression of OCT4 promoter (OCT4 promoter)
"O=C1Nc2cc(Br)ccc2/C1=C1/Nc2ccccc2/C1=N\O [D9-6452, 6-bromoindirubin-3′-oxime]",could be used to replace virally transduced pluripotency factors,positive,4,–,–
"CCCCC[C@H](O)/C=C/[C@H]1[C@H](O)CC(=O)[C@@H]1C/C=C\CCCC(=O)O [D2-6542, Prostaglandin E2]",could be used to replace virally transduced pluripotency factors,positive,10,–,–
"O=C1Nc2ccc([N+](=O)[O-])cc2C1=C1Nc2ccccc2C1=NO [D3-8976, Indirubin-5-nitro-3′-oxime]",–,positive,4,–,–
"CCCCC[C@H](O)/C=C/[C@H]1C(=O)C=C[C@@H]1C/C=C\CCCC(=O)O [D9-9811, Prostaglandin J2]",could be used to replace virally transduced pluripotency factors,positive,10,–,–
"Br.Cc1ccc(C(=O)Cn2c3c(sc2=N)CCCC3)cc1 [D12-2234, 1-(4-Methylphenyl)-2-(4,5,6,7-tetrahydro-2-imino-3(2H)-benzothiazolyl)ethanone HBr]",–,positive,30,–,–
"Cc1cccc(-c2n[nH]cc2-c2ccc3ncccc3n2)n1 [D21-8765, 2-(3-(6-Methylpyridin-2-yl)-1H-pyrazol-4-yl)-1,5-naphthyridine]",–,positive,25000,–,–
"CCCC(CCC)C(=O)O [D10-8976, Valproic Acid]",could be used to replace virally transduced pluripotency factors,positive,2000,stimulate expression,stimulate expression

# Reference: US9988607B2, “Artificial three-dimensional microenvironment niche culture and methods of using the same” (priority 2008, dated 2018)
